These results are taken from patent publication US11993640B2, “Treating inflammatory lung disease” (United States Government as represented by the Department …, priority 2019, dated 2024).

SMILES strings stand for the structures. Entries after “also recorded” stand apart in the source; their conditions may differ. Non-standard residues stand in square brackets, D forms with d. Residues, ends and D or L forms follow the SMILES beside them. *: point of attachment. Phenylacetyl(2,3,4,5,6-F5) = O=C(Cc1c(F)c(F)c(F)c(F)c1F)*; Phe(F5) = N[C@@H](Cc1c(F)c(F)c(F)c(F)c1F)C(=O)O; hArg = N=C(N)NCCCC[C@H](N)C(=O)O; 12Ado = NCCCCCCCCCCCC(=O)O; Nle = CCCC[C@H](N)C(=O)O; Orn = NCCC[C@H](N)C(=O)O; Abu = CC[C@H](N)C(=O)O; PhAc = O=C(Cc1ccccc1)*

One experiment has as its system rat pituitary cells. The experiment can be described thus: Inhibition of GHRH(1-29)NH2-stimulated GH release from rat pituitary cells (ELISA). It counts as cell-based. The conditions noted are these: analog 20 nM. How it is done:
In vitro assessment of the antagonistic activity of GHRH analogs. Rats were decapitated and pituitaries were collected in pre-warmed HBSS (Hanks' Balanced Salt Solution). Tissue was then cut into small pieces and digested in HBSS medium containing 3% BSA, 50 μg/ml gentamycin and 0.5% collagenase for 50 minutes at 37° C. Cells were further dispersed by pipetting and passed through a 100 μm cell strainer with the addition of DMEM containing 50 μg/ml gentamycin, 10% horse serum and 2.5% FBS (growth medium). Cells were harvested at 475×g for 2 minutes, resuspended in fresh growth medium and seeded onto poly-D-lysine-coated 24-well plates (7 pituitaries/plate). Cells were left to recover for 4 days. Growth medium was then replaced with serum-free DMEM for 4 hours and GHRH analogs (at concentration of 20 nM) were added in DMEM containing 0.1% BSA for 30 minutes. Cells were replenished with medium containing the same concentration of the analogs and 1 nM GHRH(1-29)NH2 for 30 minutes. Medium from this step was collected, centrifuged at 800 g for 3 minutes and GH concentration was determined by ELISA (ALPCO Diagnostics, Mill Valley, CA) according to the manufacturer's instruction.

The test system of a further experiment is RT4 cells. As to the kind of experiment: In vitro cell viability, urothelial cancer RT4. The experiment is classed as cell-based, human. Particulars: 5 μM, 72 h; relative to MIA602 = 1; Table 3A. Here is the method: (§1) The inhibitory effects of the various synthesized GHRH antagonists were tested in cell proliferation assays in various human cancer cell lines including stomach cancer (KATOIII, N87), colon cancer (HT-29), urothelial cancer (J82, RT4), pancreatic cancer (PANC-1, CFPAC-1), prostatic cancer (PC3), breast cancer (MX-1, HCC1806), ovarian cancer (SK-OV-3, OVCAR-3) and lung cancer (HCC827, H460).
(§2) Cell culture. Human cancer cell lines including pancreatic (PANC-1 and CFPAC-1), lung (HCC827 and H460), stomach (NCI-N87 and KATOIII), urothelial (J82, RT4), prostatic (PC3), breast (MX-1 and HCC 1806), colorectal (HT-29), and ovarian (SK-OV-3 and OVCAR-3) were obtained from the American Type Culture Collection (ATCC) and cultured at 37° C. in a humidified 95% air/5% CO2 atmosphere in the medium recommended by ATCC.
(§3) In vitro cell viability. Cell viability was analyzed as follows: cancer cells including pancreatic (PANC-1 and CFPAC-1), lung (HCC827 and H460), stomach (NCI-N87 and KATOIII), urothelial (J82, RT4), prostatic (PC3) and breast (MX-1 and HCC 1806), colorectal (HT-29) and ovarian (SK-OV-3 and OVCAR-3) were grown on 96 well plates to ˜60% confluence, the cells were starved for 24 h in culture medium containing 0.5% FBS. Cells were then treated with GHRH antagonists MIA602 AVR compounds at concentrations of 1, 2.5 or 5 μM, or vehicle (0.1% DMSO) in quintuplicates for 72 hours. The medium was replaced every 48 hours. Cell viability was measured using CellTiter 96 aqueous one solution kit (Promega). Inhibitory effects of tested AVR compounds in comparison to that of MIA602 are presented as inhibitory potency.
(§4) Inhibitory effects of selected AVR compounds in comparison to that of MIA602 are presented as inhibitory potency (e.g., percentage of inhibition). […] The cell lines tested including lung cancer HCC827 (FIG. 2A), pancreatic cancer CFPAC-1 (FIG. 2B), stomach cancer N87 (FIG. 2C), colon cancer HT-29 (FIG. 2D), breast cancers MX-1 and HCC1806 (FIGS. 2E, F). […]

The subject of the next experiment is PC3 cells. As to the kind of experiment: In vitro cell viability, prostatic cancer PC3. It counts as cell-based, human. Particulars: 5 μM, 72 h; relative to MIA602 = 1; Table 3A. How it is done: as §1, §2, §3, §4
In the next experiment the test system is PC3 xenograft. The experiment can be described thus: Xenograft tumor growth in nude mice, prostate cancer PC3. The experiment is classed as in vivo. Particulars: Panel N, 8 weeks, 5 μg/day s.c. Here is the method:
The peptides' activity was compared with GHRH antagonist MIA-602. All statistical analyzses were performed from comparing GHRA antagonists to non-treated tumor (control).
Peptides and chemicals. GHRH antagonists MIA-602 and AVR-GHRH antagonists (see Table 2 above) were synthesized by solid phase methods and purified by HPLC. The peptides were dissolved in DMSO and further diluted in 10% 1, 2-propanediol. The final concentration of peptides was 50 µg/ml in 10% 1, 2-propanediol containing 0.1% of DMSO.
Cell culture. Human cancer cell lines including pancreatic (PANC-1 and CFPAC-1), lung (HCC827 and H460), stomach (NCI-N87), prostate (PC3), brest (MX-1 and HCC-1806), colorectal (HT-29), and ovarian (SK-OV-3 and OVCAR-3) were obtained from the American Type Culture Collection (ATCC) and cultured at 37° C. in a humidified 95% air/5% CO2 atmosphere in the medium recommended by ATCC.
Xenograft models of human cancers in nude mice. Female athymic (NCr nu/nu) nude mice, 5-to 6-weeks-old, obtained from the Envigo labs (Tampa, FL), were housed in laminar airflow cabinets under pathogen-free conditions with a 12-h light/12-h dark schedule, and were fed autoclaved standard chow and water. To generate mice with xenografted tumors, tumor xenografts were initiated by subcutaneous (s.c.) injection of […] human cancer cells into female nude mice. After about 4 weeks the resulting tumors were dissected and collected after removing necrosis tissues. The tumors were then cut into particles with size of ˜3 mm3 and transplanted s.c. by trocar needle into experimental animals. When tumors grew to the size of 50-60 mm3 (by volume), mice were randomized into groups and treated daily for 4-8 weeks by subcutaneous administration of 5 μg of GHRH antagonists MIA-602 or AVR-compounds (2-10 μg as indicated), or vehicle solutions (0.1% DMSO in 10% 1, 2-propanediol) respectively. Tumor sizes were measured weekly.
Statistical analysis. One-way ANOVA followed by Bonferroni comparison were performed. Data are expressed as Mean±SEM. […]

In experiment [1] the test system is PAK1-STAT3/NF-κB in gastric cancer cells. Particulars: Gan et al. 2016; cited from earlier work.

Regarding `CCCC[C@H](NC(=O)[C@@H](NC(=O)[C@H](CC(=O)O)NC(=O)[C@H](CCC(N)=O)NC(=O)[C@H](CC(C)C)NC(=O)[C@H](CC(C)C)NC(=O)[C@H](CCCCN)NC(=O)[C@H](CCCNC(=N)N)NC(=O)[C@H](C)NC(=O)[C@H](CO)NC(=O)[C@H](CC(C)C)NC(=O)[C@H](CCC(N)=O)NC(=O)[C@H](CC)NC(=O)[C@H](CC(C)C)NC(=O)[C@@H](NC(=O)[C@H](CCCCN)NC(=O)[C@H](CCCNC(=N)N)NC(=O)[C@H](Cc1ccc(OC)cc1)NC(=O)[C@H](CCCCNC(=N)N)NC(=O)[C@H](C)NC(=O)[C@@H](NC(=O)[C@H](Cc1c(F)c(F)c(F)c(F)c1F)NC(=O)[C@@H](NC(=O)[C@H](C)NC(=O)[C@H](CC(=O)O)NC(=O)[C@@H](CCCNC(=N)N)NC(=O)[C@H](Cc1ccc(O)cc1)NC(=O)CCCCCCCCCCCNC(=O)Cc1c(F)c(F)c(F)c(F)c1F)[C@@H](C)CC)[C@@H](C)O)C(C)C)[C@@H](C)CC)C(=O)N[C@H](CCCNC(=N)N)C(=O)N[C@@H](CCCCNC(=N)N)C(=O)NC` [AVR-235] ({Phenylacetyl(2,3,4,5,6-F5)-12Ado}-Y[dR]DAI[Phe(F5)]TA[hArg]Y(Me)RKVL[Abu]QLSARKLLQDI[Nle][dR][hArg]-NHMe), the “Inhibitory effect on the release of GH compared with MIA-602” value with rat pituitary cells is “higher inhibitory effects than MIA-602”.
`CCCC[C@H](NC(=O)[C@@H](NC(=O)[C@H](CC(=O)O)NC(=O)[C@H](CCC(N)=O)NC(=O)[C@H](CC(C)C)NC(=O)[C@H](CC(C)C)NC(=O)[C@H](CCCN)NC(=O)[C@H](Cc1c[nH]cn1)NC(=O)[C@H](C)NC(=O)[C@H](CO)NC(=O)[C@H](CC(C)C)NC(=O)[C@H](CCC(N)=O)NC(=O)[C@H](CC)NC(=O)[C@H](CC(C)C)NC(=O)[C@@H](NC(=O)[C@H](CCCN)NC(=O)[C@H](Cc1c[nH]cn1)NC(=O)[C@H](Cc1ccc(OC)cc1)NC(=O)[C@H](CCCCNC(=N)N)NC(=O)[C@H](C)NC(=O)[C@@H](NC(=O)[C@H](Cc1c(F)c(F)c(F)c(F)c1F)NC(=O)[C@@H](NC(=O)[C@H](C)NC(=O)[C@H](CC(=O)O)NC(=O)[C@@H](CCCNC(=N)N)NC(=O)[C@H](Cc1ccc(O)cc1)NC(=O)CCCCCCCCCCCNC(=O)Cc1ccccc1)[C@@H](C)CC)[C@@H](C)O)C(C)C)[C@@H](C)CC)C(=O)N[C@H](CCCNC(=N)N)C(=O)N[C@@H](CCCCNC(=N)N)C(N)=O` [MIA-602, PhAC-Ada, Tyr D-Arg, Asp, Ala, Ile, 5FPhe, Thr, Ala, Har, Tyr(Me), His, Orn, Val, Leu, Abu, Gin, Leu, Ser, Ala, His, Orn, Leu, Leu, Gin, Asp, Ile, Nle, D-Arg, Har NH2, reference compound] ({PhAc-12Ado}-Y[dR]DAI[Phe(F5)]TA[hArg]Y(Me)H[Orn]VL[Abu]QLSAH[Orn]LLQDI[Nle][dR][hArg]-NH2): in the experiment with RT4 cells, the “Relative inhibitory potency, Urothelial RT4” value is 1. In addition, the “Relative inhibitory potency, Prostatic PC3” value in the experiment on PC3 cells is 1. The “Tumor Growth %” value in the experiment on PC3 xenograft is on record as 450.9%. The “Signaling pathways in gastric cancer cells” value in experiment [1] is “downregulates p21 activated kinase and STAT3 and NFκB; also recorded: inhibits signaling pathways, including PAK1-STAT3/NF-κB”.
